13 compounds from patent publication US7223766B2, “Bi-cyclic pyrimidine inhibitors of TGFβ” (Scios, Inc., priority 2003, dated 2007) can be followed below.

SMILES strings stand for the structures.

For the first test, the target named is T1, TGF R1 kinase (Homo sapiens, UniProt P36897).
T1 sequence (P36897 34-503): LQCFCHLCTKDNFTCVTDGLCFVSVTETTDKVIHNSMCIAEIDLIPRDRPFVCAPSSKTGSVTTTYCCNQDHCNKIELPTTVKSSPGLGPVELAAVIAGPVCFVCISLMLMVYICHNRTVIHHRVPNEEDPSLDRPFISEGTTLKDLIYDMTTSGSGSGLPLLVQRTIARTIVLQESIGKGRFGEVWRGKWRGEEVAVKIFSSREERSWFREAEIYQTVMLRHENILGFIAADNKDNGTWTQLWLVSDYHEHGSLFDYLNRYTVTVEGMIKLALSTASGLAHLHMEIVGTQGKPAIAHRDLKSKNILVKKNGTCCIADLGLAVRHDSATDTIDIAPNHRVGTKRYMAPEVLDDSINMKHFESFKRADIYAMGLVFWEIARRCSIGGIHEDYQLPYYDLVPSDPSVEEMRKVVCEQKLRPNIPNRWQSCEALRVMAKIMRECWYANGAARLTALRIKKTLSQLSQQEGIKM
Nature of the test: TGF-β inhibition assay: phosphorylation of the substrate casein by TGF R1 kinase. It is filed as biochemical. The note with it: table names no assay; casein assay of Example 2: 2.5 μM ATP, 100 μM casein, 6.4 nM TGF R1 kinase. The procedure:
Invention compounds were tested for their abilities to inhibit the phosphorylation of the substrate casein. The assay was conducted as follows: Compound dilutions and reagents were prepared fresh daily. Compounds were diluted from DMSO stock solutions to 2 times the desired assay concentration, keeping final DMSO concentration in the assay less than or equal to 1%. TGF RI kinase was diluted to 4 times the desired assay concentration in buffer and DTT. ATP and casein were diluted into 4× reaction buffer, and gamma-^32P-ATP was added at 50 μCi/mL.
The assay was performed by adding 10 μl of the enzyme to 20 μl of the compound solution. The reaction was initiated by the addition of 10 μl of the casein/ATP mix. Final assay conditions included 2.5 μM ATP, 100 μM casein, 6.4 nM TGF R1 kinase, and […] in 20 mM Tris buffer, pH 7.5. The reactions were incubated at room temperature for 45 minutes. The reactions were then stopped by transferring 23 μl of reaction mixture onto a phosphocellulose 96-well filter plate, which had been pre-wetted with 15 μl of 0.25M H3PO4 per well. After 5 minutes, the wells were washed 4× with 75 mM H3PO4 and once with 95% ethanol. The plate was dried, scintillation cocktail was added to each well, and the wells were counted in a Packard TopCount microplate scintillation counter. The ability of a compound to inhibit the enzyme was determined by comparing the counts obtained in the presence of the compound to those of the positive control (in the absence of compound) and the negative control (in the absence of enzyme).
In both of the assays referenced above, IC50 values can be determined with curve-fitting plots available with common software packages. Approximate IC50 values can be calculated using formula: IC50 (app)=A×i/(1−A) where A=fractional activity and i=total inhibitor concentration.
The compound `CNC(=O)c1cnccc1Nc1nc(-c2cc(Cl)ccc2F)nc2c1CCC2` [Compound 35] gave an IC50 of 0.049 µM. Still for that read-out and setting: under `CN(C)CCCNC(=O)c1cnccc1Nc1nc(-c2cc(Cl)ccc2F)nc2c1CCC2` [Compound 69] stands 0.0902 µM. Take `O=C(NCCCN1CCOCC1)c1cnccc1Nc1nc(-c2cc(Cl)ccc2F)nc2c1CCC2` [Compound 70]: inhibition was half-maximal at 0.529 µM (IC50). The same measure, in the same setting: under `O=C(NCCCn1ccnc1)c1cnccc1Nc1nc(-c2cc(Cl)ccc2F)nc2c1CCC2` [Compound 71] stands 0.844 µM; under `O=C(NCCCN1CCCC1=O)c1cnccc1Nc1nc(-c2cc(Cl)ccc2F)nc2c1CCC2` [Compound 72], 6.46 µM; under `CN1CCCC1CCNC(=O)c1cnccc1Nc1nc(-c2cc(Cl)ccc2F)nc2c1CCC2` (stereo not drawn) [Compound 73], 0.309 µM. Consider `CC1CCCCN1CCCNC(=O)c1cnccc1Nc1nc(-c2cc(Cl)ccc2F)nc2c1CCC2` (stereo not drawn) [Compound 74], for which the IC50 was 0.115 µM. On the same count and under the same terms, under `O=C(NCCN1CCCC1)c1cnccc1Nc1nc(-c2cc(Cl)ccc2F)nc2c1CCC2` [Compound 75] stands 0.712 µM; under `O=C(NCCN1CCCCC1)c1cnccc1Nc1nc(-c2cc(Cl)ccc2F)nc2c1CCC2` [Compound 78], 2.46 µM; under `CCN(CC)CCNC(=O)c1cnccc1Nc1nc(-c2ccccc2F)nc2c1CCC2` [Compound 79], 5.49 µM. On the same count and under the same terms, under `Cc1cnccc1Nc1nc(-c2cc(Cl)ccc2F)nn2cccc12` [Compound 80] stands 0.849 µM. Still for that read-out and setting: under `Fc1ccccc1-c1cc(Nc2ccncc2)n2ncnc2n1` [Compound 82] stands 8.84 µM; under `Fc1ccccc1-c1cc(Nc2ccncn2)n2ncnc2n1` [Compound 83], 16.9 µM.

A further test has as its system P-Smad 2/3. As to the kind of experiment: Bleomycin-induced SMAD phosphorylation in rats, phospho SMAD 2/3 ELISA of lung tissue. It is filed as in vivo, rat. The conditions noted are these: male Sprague-Dawley rats, intratracheal bleomycin, oral 40 mg/kg bid days 1 to 5, versus control group; 40 mg/kg. Here is the method:
The effect of TGF-beta inhibitors on bleomycin-induced SMAD phosphorylation was studied in male Sprague-Dawley rats purchased from Charles River. Rats were housed in groups of two in the animal facility and provided with filtered air at a constant temperature and humidity. The rats were allowed to acclimate to the new environment for one week before all treatments. A 12:12 hour light-dark cycle was maintained, and the animals had free access to food and water.
To induce SMAD activation, rats were intubated with 0.5 ml of saline or 0.5 ml of 1.0 unit/ml of bleomycin by intratracheal injection under anesthesia. The anesthetic solution used was a mixture of 0.4 ml of ketamine (100 mg/ml) and 0.25 ml of xylazine (20 mg/ml) at a dose of 1.3 ml/kg.
On days 1 to 5, treated rats were weighed and orally dosed with compound 35 two-times a day at 40 mg/kg.
On Day 5, after dosing, rats were sacrificed by an overdose of the ketamine/xylazine cocktail, and then the trachea, heart and lungs of the animals were removed en bloc. All lung lobes were collected, dissected and stored in −80° C. for phospo SMAD ELISA assays.
To evaluate the effect of SMAD activation (an indicia of fibrosis), a phospho SMAD 2/3 ELISA assay was performed using the lung tissue of the sacrificed animals.
(In general: ELISA stands for enzyme-linked immunosorbent assay.)
With `CNC(=O)c1cnccc1Nc1nc(-c2cc(Cl)ccc2F)nc2c1CCC2` [Compound 35], the “bleomycin-induced phosphorylation of P-Smad 2/3 in the lung” value is “significantly reduce”.

The test is the same for the next values; noted with them: male Sprague-Dawley rats, intratracheal bleomycin, oral 40 mg/kg bid days 1 to 5, versus control group; listed as compound 35, 40 mg/kg.
Turning to `CNC(=O)c1cnccc1Nc1nc(-c2cc(Cl)ccc2F)nc2c1CCC2` [Compound 35], the “bleomycin-induced phosphorylation of P-Smad 2/3 in the lung” value is listed as “reduce”.

One may read the IC50 as the concentration at which inhibition is half-maximal. A lower IC50 goes with higher potency.
